As usually defined, the melting point is the temperature, or range, at which the solid turns liquid.

Here are results for 64 compounds from a melting point compilation (Tetko et al.; mined from patent text by program, amines drawn as free bases though some values may be those of a salt).

Structures are written as SMILES.

`CCOC(=O)c1nn(Cc2ccc(OC)c(OC)c2)c2cc(OC)c(OC)cc12`: the melting point lay within 138 to 141 °C. Take `Cc1ccc(S(=O)(=O)NOC(C)C)cc1`: the melting point came to 104 °C. In turn, `N#CCCNC(=O)C1=CC(CF)(CF)Oc2cc(Cl)c(Cl)cc21` came in with a melting point of 135 to 136 °C. The value for `COc1c(C)c(C)c(OC)c(C(O)(c2ccc(F)cc2)C(C)C)c1C` (centres undefined) was 129 to 130 °C. In turn, `COc1cc(C)c(C(=O)c2c(Cl)cccc2Cl)c(OC(=O)Cc2ccccc2)c1OC` displayed a melting point of 106 °C. In turn, `CC(COc1ccc(O)c(C(N)=O)c1)NCC(O)c1ccccn1` (centres undefined) came in with a melting point of 147 to 165 °C. The value for `CCCCCCN(C)c1ccc(C=C2SC(=S)N(CCNC(=O)C(F)(F)F)C2=O)cc1` was 136 to 139 °C; that for `CC(/C=C/C(=O)OC(C)(C)C)=C\c1ccc(N)cc1` was 99 to 101 °C. The value for `OC(CN1CCC(c2c[nH]c3ccccc23)CC1)C1COc2ccccc2O1` (centres undefined) was 145 °C. Next, `CC(C)CC(CO)(CO)CC(C)C`: 75 to 77 °C.

For the compound `CN1CCc2cc(Cl)c(O)cc2C1C1(c2ccc(Cl)cc2)CCC1` (centres undefined), the melting point was in the range of 168 to 171 °C. Next, `Cc1c(CC(=O)OCCCO)cc(-c2ccc(S(C)(=O)=O)cc2)n1-c1ccccc1`: 108 to 110 °C; `CNC(=O)C(Cc1c[nH]c2ccccc12)NC(=O)C(C)(CC(C)C)c1ccc(Cl)cc1S` (centres undefined): 75 to 78 °C. Next, `Cc1ccc(CC(CNC(=O)C(C)c2ccc(NS(C)(=O)=O)c(Cl)c2)COC(=O)C(C)(C)C)cc1C` (centres undefined): 127 to 129 °C. In turn, `Cn1cc(S(=O)(=O)Cl)c(=O)c2ccc(C(F)(F)F)cc21` had a melting point of 262 to 265 °C. Compound `C#Cc1ccnc(-c2ccc(-c3cc(C#C)ccn3)c([N+](=O)[O-])c2)c1` gave a melting point of 178 to 180 °C. The value for `NC(=O)N1CC(Oc2ccccc2)C1` was 179 to 186 °C; that for `CCCc1nc(C)c2c(Sc3ccc(NC(C)=O)cc3)nc(-c3ccccc3OCC)nn12` was 226 to 228 °C.

Compound `O=C1c2ccccc2C2(O)Oc3cc4ccccc4cc3C12O` (centres undefined) came in with a melting point of 220 to 221 °C.

As to `COc1ccc2oc(-c3ccccc3)c(CC#N)c2c1`, the melting point was in the range of 106 to 107 °C. The value for `C#CCCCCCC(=O)Nc1nc2nn(C)cc2c2nc(-c3ccco3)nn12` was 204 to 208 °C; that for `Nc1cc(C(=O)O)cc(S(N)(=O)=O)c1Oc1cccc(Cl)c1` was 239 to 240 °C; that for `O=C(O)Cc1ccc2occ(-c3ccc(C(=O)O)cc3)c2c1` was 278 to 281 °C. Next, `CCCOC(=O)C=CC1C(C(=O)O)C1(C)C` (centres undefined): 59 °C. Next, `CCCCc1nn(C(CC)c2ccccc2)c(=O)n1Cc1ccc(-c2ccccc2-c2nnn[nH]2)cc1` (centres undefined): 72 to 75 °C. Turning to `CCCCCCCCCCCC(=O)N1c2ccccc2C(=O)N(C(C)C)S1(=O)=O`, the melting point was in the range of 57.5 to 58.5 °C. Next, `CCCCN1C(=O)C(=O)C(C)=C(C#N)C1=O`: 134 to 135 °C; `Cc1nc(N=CN(C)C)sc1C`: 47 to 58 °C; `COCCCOc1cc(N(C)S(=O)(=O)c2ccccn2)c2[nH]c(C3=NCC(CN4CCS(=O)CC4)S3)cc2c1` (centres undefined): 176 to 177 °C.

Turning to `COc1ccc(S(=O)(=O)n2c(CCC(=O)O)cc3cc(Cl)ccc32)cc1`, the melting point lay within 95 to 98 °C. The value for `O=C1NC(Cc2ccc(OCc3ccccc3)cn2)C(=O)NC1Cc1ccc(Cl)cc1` (centres undefined) was 227 to 229 °C; that for `CC(C(=O)O)(c1ccc(N2CCOCC2)cc1)c1ccc(N2CCOCC2)cc1` was 217 to 223 °C.

Compound `CCc1ccc(C(=O)c2ccccc2C(=O)O)c(CC)c1` showed a melting point of 115 to 118 °C.

For the compound `CC1(C)CC(=O)Nc2cc3nc(-c4ccc(CO)cc4)[nH]c3cc21`, the melting point was in the range of 214 to 232 °C. Next, `COc1ccc(OCc2ccccc2)cc1N`: 81 °C. `CN1CC(c2cccc(Cl)c2)=C(c2ccc(S(C)(=O)=O)cc2)C1=O` came in with a melting point of 170 to 172 °C. For the compound `CCCOc1cc(C#N)ccc1C(C)=O`, the melting point lay within 99.5 to 100 °C.

As to `CNC(=O)N(O)Cc1ccc(OCCc2nc(-c3ccccc3)oc2C)cc1`, the melting point is 139 to 144 °C.

The compound `CO/C=C(/C(=O)OC)c1ccccc1COc1cccc(Cl)n1` displayed a melting point of 91 to 92 °C. Next, `C=C(C)C(=O)Oc1ccc(NS(C)(=O)=O)cc1`: 129 to 131 °C; `FC(F)(F)CSc1nc(-c2ccc(Cl)cc2)c(-c2ccc(Cl)cc2)[nH]1`: 212 to 213 °C. `NN=C(c1cccc(F)c1)c1cccc(F)c1` returned a melting point of 35 to 36 °C. The value for `Cc1noc(-c2cccc(CN3C(=O)C4(COc5cc6c(cc54)OCCO6)c4ccccc43)c2)n1` (centres undefined) was 80 to 89 °C. Take `Nc1cc(C(=O)O)cc(SCc2ccsc2)c1Oc1ccccc1`: the melting point was 153 to 155 °C. The value for `CCCc1nc2c(N)nc(C)c(C)c2n1CCCCN(O)C(C)=O` was 164 to 166 °C; that for `O=C(Oc1cc(OC(=O)c2cc(O)c(O)c(O)c2)c2ccccc2c1)c1cc(O)c(O)c(O)c1` was 163 to 164 °C; that for `O=C(Nc1nc(-c2ccco2)c(C(=O)c2ccncn2)s1)c1ccncc1` was > 300 °C.

In turn, `O=C1O[C@@H](CO)CN1c1ccc(-n2ccnn2)c(F)c1` registered a melting point of 179 to 180 °C.

The compound `COC(=O)c1csc(C)c1NS(=O)(=O)NC(=O)Nc1nc(OC)cc(OC)n1` came in with a melting point of 174 °C. The value for `CCOC(=O)c1ccc2c(c1)sc1ccc(C)cc12` was 83 to 87 °C; that for `CCCCCCCCCCCCCCCCCCOc1cc(OCCCOc2ccc(S(C)(=O)=O)cc2)cc(C(=O)O)c1` was 110 to 111 °C; that for `CC(=O)SC(CC(=O)c1ccc(C)cc1C)C(=O)O` (centres undefined) was 101 to 102 °C. Regarding `COc1cc2c(cc1OC)CN(CCCOc1ccc(NC(=O)c3nccc4ccccc34)cc1)CC2`, the melting point stood at 160 °C. The value for `CNc1ccccc1C(=O)c1c(OC)cc(C)cc1OC` was 215 °C; that for `NC(=O)c1ccc(F)c2c1C[C@@H](N(CCCc1c[nH]c3c(F)cc(F)cc13)CC1CC1)CO2` was 147 to 151 °C; that for `CCc1nnc2c3c(c(Cl)nn12)CCCC3` was 93 to 94 °C.

Compound `C=CCOc1ccc(C(=O)C=Cc2cc(OC)c(CCCC)c(OC)c2)cc1` returned a melting point of 74 to 75 °C.

On to `NC1=NS(=O)(=O)Nc2cccc(OC3CCCCC3)c21`, for which the melting point is 215 to 216 °C.

As for `COC1(c2cc(F)cc(Sc3ccc(C(=O)C(F)(F)F)cc3)c2)CCOCC1`, the melting point is 63 °C. Turning to `CCOC(=O)c1nnc2ccc(I)cc2c1O`, the melting point is 242 to 244 °C. Next, `COC(=O)CS(=O)(=O)N1CC=C(c2ccc(Br)c(C)c2)CC1`: 110 to 112 °C; `Cc1cnc(C)c(Cl)c1N`: 82 to 83 °C. Next, `COCCOC(=O)C1=C(O)c2ccccc2S(=O)(=O)N1C`: 106 to 108 °C; `COc1ccc(CNc2ccccc2[N+](=O)[O-])cc1`: 75 to 78 °C.
